# According to patent US6664231B1, “Anti-fungal peptides” (priority 1993, dated 2003):
# Square brackets hold non-standard residues; d marks the D form. Peptide text beside a SMILES is read from it. 1Nal = N[C@@H](Cc1cccc2ccccc12)C(=O)O
# System: C. albicans (CA-1, Strain SLU-1)
# Experiment: Radial diffusion assay
# Format: cell-based, Candida albicans
# Settings: for Plate Assay (nmol), pure peptide activity: HPLC-purified peptide; for Plate Assay (nmol), pure peptide activity / Plate Assay (nmol), crude peptide activity: nanomoles required to achieve a net 30 mm^2 zone (log titration curve); for C. albicans pmol/30 mm^2 zone: pmoles of peptide added to well to achieve a 30 mm^2 zone, PROBIT analysis, crude or purified (P′) peptide
# Protocol: In the radial diffusion assay procedures, the CA-1 cultures and peptide solutions were prepared as in the broth assay procedure described above. Ten mL of molten underlayer agarose comprising 3% Sabouraud Dextrose broth, 1% agarose (Pharmacia, Piscataway, N.J.), 0.02% Tween 20, and 10 mM sodium phosphate at pH 7.4, was added to polystyrene tubes and maintained in a 56° C. water bath until the addition of yeast. Tubes were cooled to approximately 45° C., yeast were added to give a final concentration of 1×10^6 CFU/mL, and the tubes were mixed again by inverting. The contents were poured into level square petri dishes and distributed evenly. […] A series of wells were punched into the hardened agarose using a sterile 3 mm punch attached to a vacuum apparatus.
# Peptides to be assayed were 2-fold serially diluted in Dulbecco's PBS (D-PBS) starting from a concentration of approximately 1 mg/mL. Five μL of each dilution were added to each well and the plates were incubated at 37° C. for 3 hours. An overlayer of 10 mL of molten agarose comprising 6% Sabouraud Dextrose broth, 1% agarose, and 10 mM sodium phosphate, pH 7.4, (at approximately 45° C.) was then added and plates were incubated overnight at 37° C. Following this overnight incubation, a dilute Coomassie solution was poured into the plates and allowed to stain for 24 hours.
# Clear zones of growth inhibition around each well were measured with calipers. The actual area of growth inhibition (mm^2) was calculated by subtracting the area of the well. Table 1 below sets out the results of the radial diffusion assays for tested peptides in terms of the number of picomoles (pmol) of peptide required to establish a 30 mm^2 area of growth inhibition calculated by PROBIT analysis (e.g., calculated from regression of the linear portion of log-concentration dose-response curve, log pmol/well vs. net area of inhibition).
smiles,measurement,value
CC[C@H](C)[C@H](NC(=O)[C@H](CC(C)C)NC(=O)[C@H](Cc1c[nH]c2ccccc12)NC(=O)[C@@H](N)CCCCN)C(=O)N[C@@H](CCC(N)=O)C(=O)N[C@@H](CC(C)C)C(=O)N[C@@H](Cc1ccccc1)C(=O)N[C@@H](Cc1c[nH]cn1)C(=O)N[C@@H](CCCCN)C(=O)N[C@@H](CCCCN)C(N)=O [Peptide 293],"Plate Assay (nmol), pure peptide activity",0.215 nmol
same,"Plate Assay (nmol), crude peptide activity",1.156 nmol
CC[C@H](C)[C@H](NC(=O)[C@H](CC(C)C)NC(=O)[C@H](Cc1c[nH]c2ccccc12)NC(=O)[C@@H](N)CCCCN)C(=O)N[C@@H](CCC(N)=O)C(=O)N[C@@H](CC(C)C)C(=O)N[C@@H](Cc1ccccc1)C(=O)N[C@@H](Cc1c[nH]cn1)C(=O)N[C@@H](CCCCN)C(N)=O [Peptide 297],"Plate Assay (nmol), pure peptide activity",0.564 nmol
same,"Plate Assay (nmol), crude peptide activity",1.817 nmol
CC[C@H](C)[C@H](NC(=O)[C@H](CC(C)C)NC(=O)[C@@H](N)Cc1c[nH]c2ccccc12)C(=O)N[C@@H](CCC(N)=O)C(=O)N[C@@H](CC(C)C)C(=O)N[C@@H](Cc1ccccc1)C(=O)N[C@@H](Cc1c[nH]cn1)C(=O)N[C@@H](CCCCN)C(=O)N[C@@H](CCCCN)C(N)=O [Peptide 298],"Plate Assay (nmol), pure peptide activity",1.106 nmol
same,"Plate Assay (nmol), crude peptide activity",2.628 nmol
CC[C@H](C)[C@H](NC(=O)[C@H](CC(C)C)NC(=O)[C@@H](N)Cc1c[nH]c2ccccc12)C(=O)N[C@@H](CCC(N)=O)C(=O)N[C@@H](CC(C)C)C(=O)N[C@@H](Cc1ccccc1)C(=O)N[C@@H](Cc1c[nH]cn1)C(=O)N[C@@H](CCCCN)C(N)=O [Peptide 303],"Plate Assay (nmol), pure peptide activity",1.306 nmol
same,"Plate Assay (nmol), crude peptide activity",>4.694 nmol
CC[C@H](C)[C@H](NC(=O)[C@H](CC(C)C)NC(=O)[C@H](Cc1cccc2ccccc12)NC(=O)CNC(=O)[C@@H](NC(=O)[C@H](CCCCN)NC(=O)[C@H](CO)NC(=O)[C@@H](N)CCCCN)C(C)C)C(=O)N[C@@H](CCC(N)=O)C(=O)N[C@@H](CC(C)C)C(=O)N[C@@H](Cc1ccccc1)C(=O)N[C@@H](Cc1c[nH]cn1)C(=O)N[C@@H](CCCCN)C(=O)N[C@@H](CCCCN)C(N)=O [XMP.83] (H-KSKVG[1Nal]LIQLFHKK-NH2),C. albicans pmol/30 mm^2 zone,1804 pmol/30 mm^2 zone
CC[C@H](C)[C@H](NC(=O)[C@H](CC(C)C)NC(=O)[C@H](Cc1c[nH]c2ccccc12)NC(=O)CNC(=O)[C@@H](NC(=O)[C@H](CCCCN)NC(=O)[C@H](CO)NC(=O)[C@@H](N)CCCCN)C(C)C)C(=O)N[C@@H](CCC(N)=O)C(=O)N[C@@H](CC(C)C)C(=O)N[C@@H](Cc1cccc2ccccc12)C(=O)N[C@@H](Cc1c[nH]cn1)C(=O)N[C@@H](CCCCN)C(=O)N[C@@H](CCCCN)C(N)=O [XMP.109] (H-KSKVGWLIQL[1Nal]HKK-NH2),C. albicans pmol/30 mm^2 zone,>2839 pmol/30 mm^2 zone
CC[C@H](C)[C@H](NC(=O)[C@H](CC(C)C)NC(=O)[C@H](Cc1c[nH]c2ccccc12)NC(=O)CNC(=O)[C@@H](NC(=O)[C@H](CCCCN)NC(=O)[C@H](CO)NC(=O)[C@@H](N)CCCCN)C(C)C)C(=O)N[C@@H](CCC(N)=O)C(=O)N[C@@H](CC(C)C)C(=O)N[C@@H](Cc1ccccc1)C(=O)N[C@@H](Cc1cccc2ccccc12)C(=O)N[C@@H](CCCCN)C(=O)N[C@@H](CCCCN)C(N)=O [XMP.110] (H-KSKVGWLIQLF[1Nal]KK-NH2),C. albicans pmol/30 mm^2 zone,>2922 pmol/30 mm^2 zone
CC[C@H](C)[C@H](NC(=O)[C@H](CC(C)C)NC(=O)[C@H](Cc1c[nH]c2ccccc12)NC(=O)CNC(=O)[C@@H](NC(=O)[C@H](CCCCN)NC(=O)[C@H](CO)NC(=O)[C@@H](N)CCCCN)C(C)C)C(=O)N[C@@H](CCC(N)=O)C(=O)N[C@@H](CC(C)C)C(=O)N[C@@H](Cc1ccccc1)C(=O)N[C@@H](Cc1c[nH]cn1)C(=O)N[C@@H](CCCCN)C(=O)N[C@@H](Cc1cccc2ccccc12)C(N)=O [XMP.111] (H-KSKVGWLIQLFHK[1Nal]-NH2),C. albicans pmol/30 mm^2 zone,>2809 pmol/30 mm^2 zone
